Values after ≈ are worked out from the molar mass of the structure shown.
These molecules were tested on S. pneumoniae ATCC 49619 (assay: Minimal inhibitory concentration (MIC) by microdilution method (CLSI M7-A7)). Details: Streptococcus pneumoniae, ATCC49619, cation-adjusted Mueller-Hinton Broth supplemented with 3% (v/v) lysed horse blood.
Type: cell-based, Streptococcus pneumoniae
Experimental: Minimal inhibitory concentrations (MICs; mg/l) were determined in cation-adjusted Mueller-Hinton Broth (supplemented with 3% (v/v) lysed horse blood for testing Streptococcus pneumoniae) by a microdilution method following the description given in “Methods for Dilution Antimicrobial Susceptibility Tests for Bacteria that Grow Aerobically”, Approved standard, 7th ed., Clinical and Laboratory Standards Institute (CLSI) Document M7-A7, Wayne, Pa., USA, 2006.

| Structure (SMILES) | MIC |
| --- | --- |
| CCNC(=O)Nc1cc2c(-c3cncc(C)c3)ccc(C)c2cn1 [Example 10, 1-ethyl-3-[8-methyl-5-(5-methyl-pyridin-3-yl)-isoquinolin-3-yl]-urea] | 2 µg/mL (≈ 6.24 µM) |
| CCNC(=O)Nc1cc2c(-c3cccnc3F)ccc(C)c2cn1 [Example 66, 1-ethyl-3-[5-(2-fluoro-pyridin-3-yl)-8-methyl-isoquinolin-3-yl]-urea] | 4 µg/mL (≈ 12.3 µM) |
| CCNC(=O)Nc1cc2cc(-c3ccc(CO)cc3)cc(C)c2cn1 [Example 15, 1-ethyl-3-[6-(4-hydroxymethyl-phenyl)-8-methyl-isoquinolin-3-yl]-urea] | 0.5 µg/mL (≈ 1.49 µM) |
| CCNC(=O)Nc1cc2cc(-c3cccc4[nH]ccc34)cc(C)c2cn1 [Example 90, 1-ethyl-3-[6-(1H-indol-4-yl)-8-methyl-isoquinolin-3-yl]-urea] | 2 µg/mL (≈ 5.81 µM) |
| CCNC(=O)Nc1cc2c(F)ccc(NC(=O)c3ccccc3)c2cn1 [Example 51, N-[3-(3-ethyl-ureido)-5-fluoro-isoquinolin-8-yl]-benzamide] | 1 µg/mL (≈ 2.84 µM) |
| CCNC(=O)Nc1cc2c(-c3cc(C)nc(C)c3)ccc(C)c2cn1 [Example 44, 1-[5-(2,6-dimethyl-pyridin-4-yl)-8-methyl-isoquinolin-3-yl]-3-ethyl-urea] | 4 µg/mL (≈ 12 µM) |
| CCNC(=O)Nc1cc2c(F)ccc(-c3ccc(C(=O)O)cc3)c2cn1 [Example 74, 4-[3-(3-ethyl-ureido)-5-fluoro-isoquinolin-8-yl]-benzoic acid] | 2 µg/mL (≈ 5.66 µM) |
| CCNC(=O)Nc1cc2c(F)ccc(Br)c2cn1 [Example 32, 1-(8-bromo-5-fluoro-isoquinolin-3-yl)-3-ethyl-urea] | 16 µg/mL (≈ 51.3 µM) |
| CCNC(=O)Nc1cc2c(-c3ccnc(C)c3)ccc(C)c2cn1 [Example 40, 1-ethyl-3-[8-methyl-5-(2-methyl-pyridin-4-yl)-isoquinolin-3-yl]-urea] | 2 µg/mL (≈ 6.24 µM) |
| CCNC(=O)Nc1cc2cc(-c3ccc4c(c3)CCO4)cc(C)c2cn1 [Example 83, 1-[6-(2,3-dihydro-benzofuran-5-yl)-8-methyl-isoquinolin-3-yl]-3-ethyl-urea] | 1 µg/mL (≈ 2.88 µM) |
| CCNC(=O)Nc1cc2c(-c3ccnc(F)c3)ccc(C)c2cn1 [Example 41, 1-ethyl-3-[5-(2-fluoro-pyridin-4-yl)-8-methyl-isoquinolin-3-yl]-urea] | 2 µg/mL (≈ 6.17 µM) |
| CCNC(=O)Nc1cc2cc(-c3cccnc3Cl)cc(C)c2cn1 [Example 82, 1-[6-(2-chloro-pyridin-3-yl)-8-methyl-isoquinolin-3-yl]-3-ethyl-urea] | 8 µg/mL (≈ 23.5 µM) |
| CCNC(=O)Nc1cc2cccc(NC(=O)c3ccccc3)c2cn1 [Example 70, N-[3-(3-ethyl-ureido)-isoquinolin-8-yl]-benzamide] | 16 µg/mL (≈ 47.8 µM) |
| CCNC(=O)Nc1cc2c(-c3cccnc3)ccc(C)c2cn1 [Example 50, 1-ethyl-3-(8-methyl-5-pyridin-3-yl-isoquinolin-3-yl)-urea] | 8 µg/mL (≈ 26.1 µM) |
| CCNC(=O)Nc1cc2cc(-c3ccoc3)cc(C)c2cn1 [Example 14, 1-ethyl-3-(6-furan-3-yl-8-methyl-isoquinolin-3-yl)-urea] | 4 µg/mL (≈ 13.5 µM) |
| CCNC(=O)Nc1cc2c(F)ccc(Cc3ccccc3)c2cn1 [Example 46, 1-(8-benzyl-5-fluoro-isoquinolin-3-yl)-3-ethyl-urea] | 1 µg/mL (≈ 3.09 µM) |
| CCNC(=O)Nc1cc2cc(NC(=O)c3ccccc3)cc(C)c2cn1 [Example 106, N-[3-(3-ethyl-ureido)-8-methyl-isoquinolin-6-yl]-benzamide] | 0.125 µg/mL (≈ 0.359 µM) |
| CCNC(=O)Nc1cc2cc(NC(=O)c3ccccc3)ccc2cn1 [Example 52, N-[3-(3-ethyl-ureido)-isoquinolin-6-yl]-benzamide] | 2 µg/mL (≈ 5.98 µM) |
| CCNC(=O)Nc1cc2cc(-c3cccc(S(N)(=O)=O)c3)cc(C)c2cn1 [Example 22, 3-[3-(3-ethyl-ureido)-8-methyl-isoquinolin-6-yl]-benzenesulfonamide] | 0.5 µg/mL (≈ 1.3 µM) |
| CCNC(=O)Nc1cc2cc(-c3cncc(C)c3)cc(C)c2cn1 [Example 39, 1-ethyl-3-[8-methyl-6-(5-methyl-pyridin-3-yl)-isoquinolin-3-yl]-urea] | 1 µg/mL (≈ 3.12 µM) |

More lines, now with the values ahead:

| MIC | Structure (SMILES) |
| --- | --- |
| 1 µg/mL (≈ 2.13 µM) | CCNC(=O)Nc1cc2c(-c3ccc(CO)cc3)ccc(Nc3cccc(C(=O)NC)c3)c2cn1 [Example 250, 3-[3-(3-ethyl-ureido)-5-(4-hydroxymethyl-phenyl)-isoquinolin-8-ylamino]-N-methyl-benzamide] |
| 1 µg/mL (≈ 3.25 µM) | CCNC(=O)Nc1cc2c(-c3ccnnc3)ccc(C)c2cn1 [Example 279, 1-ethyl-3-(8-methyl-5-pyridazin-4-yl-isoquinolin-3-yl)-urea] |
| 8 µg/mL (≈ 19.6 µM) | CCNC(=O)Nc1cc2cc(NCc3ccc(OCC(N)=O)cc3)cc(C)c2cn1 [Example 186, 2-(4-{[3-(3-ethyl-ureido)-8-methyl-isoquinolin-6-ylamino]-methyl}-phenoxy)-acetamide] |
| 2 µg/mL | CCNC(=O)Nc1cc2cccc(Nc3ccc(C(=O)NC)cc3)c2cn1.Cl [Example 204, 4-[3-(3-ethyl-ureido)-isoquinolin-8-ylamino]-N-methyl-benzamide hydrochloride] |
| 1 µg/mL (≈ 3.11 µM) | CCNC(=O)Nc1cc2cccc(CNc3cccnc3)c2cn1 [Example 190, 1-ethyl-3-[8-(pyridin-3-ylaminomethyl)-isoquinolin-3-yl]-urea] |
| 2 µg/mL (≈ 6.33 µM) | CCNC(=O)Nc1cc2c(-c3c[nH]cn3)ccc(Cl)c2cn1 [Example 288, 1-[8-chloro-5-(1H-imidazol-4-yl)-isoquinolin-3-yl]-3-ethyl-urea] |
| 2 µg/mL | CCNC(=O)Nc1cc2cccc(Nc3ccc(C)cn3)c2cn1.Cl [Example 163, 1-ethyl-3-[8-(5-methyl-pyridin-2-ylamino)-isoquinolin-3-yl]-urea hydrochloride] |
| 8 µg/mL | CCNC(=O)Nc1cc2cc(NCc3ccc(OC)nc3)cc(C)c2cn1.Cl [Example 196, 1-ethyl-3-{6-[(6-methoxy-pyridin-3-ylmethyl)-amino]-8-methyl-isoquinolin-3-yl}-urea hydrochloride] |
| 8 µg/mL | CCNC(=O)Nc1cc2c(-c3cn(C)cn3)ccc(C)c2cn1.Cl [Example 283, 1-ethyl-3-[8-methyl-5-(1-methyl-1H-imidazol-4-yl)-isoquinolin-3-yl]-urea hydrochloride] |
| 0.5 µg/mL (≈ 1.07 µM) | CCNC(=O)Nc1cc2c(-c3ccnc(C)c3)ccc(Nc3cccc(C(=O)N(C)C)c3)c2cn1 [Example 248, 3-[3-(3-ethyl-ureido)-5-(2-methyl-pyridin-4-yl)-isoquinolin-8-ylamino]-N,N-dimethyl-benzamide] |
| 4 µg/mL (≈ 12.6 µM) | CCNC(=O)Nc1cc2cc(NC(=O)COC)cc(C)c2cn1 [Example 195, N-[3-(3-ethyl-ureido)-8-methyl-isoquinolin-6-yl]-2-methoxy-acetamide] |
| 0.125 µg/mL (≈ 0.302 µM) | CCNC(=O)Nc1cc2c(-c3ccnc(OC)c3)ccc(Nc3cccnc3)c2cn1 [Example 225, 1-ethyl-3-[5-(2-methoxy-pyridin-4-yl)-8-(pyridin-3-ylamino)-isoquinolin-3-yl]urea] |
| 4 µg/mL | CCNC(=O)Nc1cc2cccc(Nc3ccc(C(=O)OC)cn3)c2cn1.Cl [Example 165, 6-[3-(3-ethyl-ureido)-isoquinolin-8-ylamino]-nicotinic acid methyl ester hydrochloride] |
| 8 µg/mL (≈ 20.3 µM) | CCNC(=O)Nc1cc2c(CNC)ccc(Nc3cccc(C(=O)O)c3)c2cn1 [Example 272, 3-{[3-(3-ethyl-ureido)-5-[(methylamino)methyl]-isoquinolin-8-yl]amino}-benzoic acid] |
| 0.5 µg/mL (≈ 1.21 µM) | CCNC(=O)Nc1cc2c(-c3cc(C)nc(C)c3)ccc(Nc3cccnc3)c2cn1 [Example 231, 1-[5-(2,6-dimethyl-pyridin-4-yl)-8-(pyridin-3-ylamino)-isoquinolin-3-yl]-3-ethyl-urea] |
| 8 µg/mL (≈ 19.9 µM) | CCNC(=O)Nc1cc2cc(NCc3cccc(-n4cncn4)c3)cc(C)c2cn1 [Example 187, 1-ethyl-3-[8-methyl-6-(3-[1,2,4]-triazol-1-yl-benzylamino)-isoquinolin-3-yl]-urea] |
| 1 µg/mL (≈ 2.51 µM) | CCNC(=O)Nc1cc2c(-c3ccncc3)ccc(Nc3ccc(C)nc3)c2cn1 [Example 218, 1-ethyl-3-[8-(6-methyl-pyridin-3-ylamino)-5-pyridin-4-yl-isoquinolin-3-yl]-urea] |
| 0.125 µg/mL (≈ 0.358 µM) | CCNC(=O)Nc1cc2cc(NC(=O)c3ccncc3)cc(C)c2cn1 [Example 116, N-[3-(3-ethyl-ureido)-8-methyl-isoquinolin-6-yl]-isonicotinamide] |
| 4 µg/mL | CCNC(=O)Nc1cc2cccc(Nc3cccc(CC(N)=O)c3)c2cn1.Cl [Example 255, 2-{3-[3-(3-ethyl-ureido)-isoquinolin-8-ylamino]-phenyl}-acetamide hydrochloride] |
| 8 µg/mL | CCNC(=O)Nc1cc2cccc(COc3cccc(N)c3)c2cn1.Cl [Example 260, 1-[8-(3-amino-phenoxymethyl)-isoquinolin-3-yl]-3-ethyl-urea hydrochloride] |
| 4 µg/mL (≈ 11.9 µM) | CCNC(=O)Nc1cc2c(-c3ccc(C(=O)O)cc3)cccc2cn1 [Example 124, 4-[3-(3-ethyl-ureido)-isoquinolin-5-yl]-benzoic acid] |
| 4 µg/mL (≈ 13.5 µM) | CCNC(=O)Nc1cc2cccc(Cn3ccnn3)c2cn1 [Example 298, 1-ethyl-3-(8-[1,2,3]triazol-1-ylmethyl-isoquinolin-3-yl)-urea] |
| 1 µg/mL (≈ 2.07 µM) | CCNC(=O)Nc1cc2c(-c3ccc(CO)cc3)ccc(Nc3cccc(C(=O)N(C)C)c3)c2cn1 [Example 251, 3-[3-(3-ethyl-ureido)-5-(4-hydroxymethyl-phenyl)-isoquinolin-8-ylamino]-N,N-dimethyl-benzamide] |
| ≤ 0.031 µg/mL | CCNC(=O)Nc1cc2cc(NC(=O)c3cccc(N(C)C)c3)cc(Nc3cccnc3)c2cn1 [Example 241, 3-dimethylamino-N-[3-(3-ethyl-ureido)-8-(pyridin-3-ylamino)-isoquinolin-6-yl]-benzamide] |
| 0.5 µg/mL (≈ 1.3 µM) | CCNC(=O)Nc1cc2c(-c3cccnc3)ccc(Nc3cccnc3)c2cn1 [Example 224, 1-ethyl-3-[5-pyridin-3-yl-8-(pyridin-3-ylamino)-isoquinolin-3-yl]-urea] |

From patent publication US20130096119A1, “Isoquinolin-3-Ylurea Derivatives” (priority 2010, published 2013)
